Assay results published in patent publication US20100041892A1, “Therapeutic agent for diabetes” (priority 2005, published 2010).

Structure (SMILES)	melting point
CCCCCOC(=O)NS(=O)(=O)CCc1cc(OCCCC)nn1Cc1ccc(Cl)cc1Cl [Example 135, pentyl ({2-[3-butoxy-1-(2,4-dichlorobenzyl)-1H-pyrazol-5-yl]ethyl}sulfonyl)carbamate]	91 to 93 °C
CCCCOc1cc(CCS(=O)(=O)NC(=O)OCc2ccccc2)n(Cc2ccc(Cl)cc2Cl)n1 [Example 136, benzyl ({2-[3-butoxy-1-(2,4-dichlorobenzyl)-1H-pyrazol-5-yl]ethyl}sulfonyl)carbamate]	99 to 101 °C
C=CCOC(=O)NS(=O)(=O)CCc1cc(OCCCC)nn1Cc1ccc(Cl)cc1Cl [Example 137, allyl ({2-[3-butoxy-1-(2,4-dichlorobenzyl)-1H-pyrazol-5-yl]ethyl}sulfonyl)carbamate]	94 to 95 °C
CCCCOc1cc(CCS(=O)(=O)NC(=O)OCc2ccccc2)n(Cc2ccc(Cl)cc2Cl)n1 [Example 138, benzyl ({2-[3-butoxy-1-(2,4-dichlorobenzyl)-1H-pyrazol-5-yl]ethyl}sulfonyl)carbamate]	92 to 95 °C
CCCCOc1cc(CCS(=O)(=O)NC(=O)OC(C)C)n(Cc2ccc(Cl)cc2Cl)n1 [Example 139, isopropyl ({2-[3-butoxy-1-(2,4-dichlorobenzyl)-1H-pyrazol-5-yl]ethyl}sulfonyl)carbamate]	120 to 121 °C
CCCCOc1cc(CCS(=O)(=O)NC(=O)OCC(C)(C)C)n(Cc2ccc(Cl)cc2Cl)n1 [Example 140, 2,2-dimethylpropyl ({2-[3-butoxy-1-(2,4-dichlorobenzyl)-1H-pyrazol-5-yl]ethyl}sulfonyl)carbamate]	116 to 118 °C
CCCCCS(=O)(=O)NC(=O)CCCc1cc(OCCCC)nn1Cc1ccc(Cl)cc1Cl [Example 146, 4-[3-butoxy-1-(2,4-dichlorobenzyl)-1H-pyrazol-5-yl]-N-(pentylsulfonyl)butanamide]	121 to 122 °C
CCCCCS(=O)(=O)NC(=O)CCCCc1cc(OCCCC)nn1Cc1ccc(Cl)cc1Cl [Example 147, 5-[3-butoxy-1-(2,4-dichlorobenzyl)-1H-pyrazol-5-yl]-N-(pentylsulfonyl)pentanamide]	91 to 93 °C
CCCCCS(=O)(=O)NC(=O)/C=C/c1cc(OCCOC)nn1Cc1ccc(C(F)(F)F)cc1Cl [Example 149, (2E)-3-[1-[2-chloro-4 (trifluoromethyl)benzyl]-3-(2-methoxyethoxy)-1H-pyrazol-5-yl]-N-(pentylsulfonyl)acrylamide]	130.5 to 132.5 °C
CCCCOc1cc(/C=C/C(=O)NS(=O)(=O)CCC(C)C)n(Cc2ccc(C(F)(F)F)cc2Cl)n1 [Example 150, (2E)-3-{3-butoxy-1-[2-chloro-4-(trifluoromethyl)benzyl]-1H-pyrazol-5-yl}-N-[(3-methylbutyl)sulfonyl]acrylamide]	89.5 to 90.5 °C
CCCCCS(=O)(=O)NC(=O)/C=C/c1cc(OC2CCOCC2)nn1Cc1ccc(C(F)(F)F)cc1Cl [Example 154, (2E)-3-[1-[2-chloro-4-(trifluoromethyl)benzyl]-3-(tetrahydro-2H-pyran-4-yloxy)-1H-pyrazol-5-yl]-N-(pentylsulfonyl)acrylamide]	160.5 to 161 °C
CCCCCS(=O)(=O)NC(=O)/C=C/c1ccc(OCCOC)cc1OCC1CCCCC1 [Example 158, (2E)-3-[2-(cyclohexylmethoxy)-4-(2-methoxyethoxy)phenyl]-N-(pentylsulfonyl)acrylamide]	97.5 to 98.3 °C
CCCCCS(=O)(=O)NC(=O)CCc1ccc(OCCOC)cc1OCC1CCCCC1 [Example 159, 3-[2-(cyclohexylmethoxy)-4-(2-methoxyethoxy)phenyl]-N-(pentylsulfonyl)propanamide]	81 to 82 °C
CCCCCS(=O)(=O)NC(=O)CCc1ccc(OCCOC)cc1OC1CCCCC1 [Example 164, 3-[2-(cyclohexyloxy)-4-(2-methoxyethoxy)phenyl]-N-(pentylsulfonyl)propanamide]	64.1 to 65.4 °C
CCCCCS(=O)(=O)NC(=O)CCc1ccc(OCCOC)cc1OCC1CCCO1 (stereo not shown) [Example 166, 3-[4-(2-methoxyethoxy)-2-(tetrahydrofuran-2-ylmethoxy)phenyl]-N-(pentylsulfonyl)propanamide]	57.8 to 58.9 °C
CCCCCS(=O)(=O)NC(=O)CCc1ccc(OCCOC)cc1OCC1CC1 [Example 167, 3-[2-(cyclopropylmethoxy)-4-(2-methoxyethoxy)phenyl]-N-(pentylsulfonyl)propanamide]	81.7 to 82.8 °C
CCCCCS(=O)(=O)NC(=O)CCc1ccc(OCCOC)cc1OCc1ccc(Cl)cc1Cl [Example 169, 3-[2-[(2,4-dichlorobenzyl)oxy]-4-(2-methoxyethoxy)phenyl]-N-(pentylsulfonyl)propanamide]	106.7 to 108.2 °C
CCCCCS(=O)(=O)NC(=O)/C=C/c1ccc(OCCOC)cc1Oc1cc(C(F)(F)F)ccc1[N+](=O)[O-] [Example 174, (2E)-3-{4-(2-methoxyethoxy)-2-[2-nitro-5-(trifluoromethyl)phenoxy]phenyl}-N-(pentylsulfonyl)acrylamide]	164.5 to 165.2 °C
CCCCCS(=O)(=O)NC(=O)/C=C/c1ccc(OCCOC)cc1Nc1ccc(C(F)(F)F)cc1 [Example 176, (2E)-3-(4-(2-methoxyethoxy)-2-{[4-(trifluoromethyl)phenyl]amino}phenyl)-N-(pentylsulfonyl)acrylamide]	142.3 to 142.6 °C
CCCCCS(=O)(=O)NC(=O)/C=C/c1ccc(OCCOC)cc1NC(=O)c1ccc(Cl)cc1Cl [Example 189, 2,4-dichloro-N-(5-(2-methoxyethoxy)-2-{(1E)-3-oxo-3-[(pentylsulfonyl)amino]prop-1-en-1-yl}phenyl)benzamide]	176.8 to 177.1 °C
CCCCCS(=O)(=O)NC(=O)/C=C/c1ccc(OCCOC)cc1NC(=O)c1ccc(F)cc1F [Example 191, 2,4-difluoro-N-(5-(2-methoxyethoxy)-2-{(1E)-3-oxo-3-[(pentylsulfonyl)-amino]prop-1-en-1-yl}phenyl)benzamide]	140 to 140.8 °C
CCCCCS(=O)(=O)NC(=O)/C=C/c1ccc(OCCOC(C)=O)cc1Oc1ncc(C(F)(F)F)cc1Cl [Example 194, 2-(3-{[3-chloro-5-(trifluoromethyl)pyridin-2-yl]oxy}-4-{(1E)-3-oxo-3-[(pentylsulfonyl)amino]prop-1-en-1-yl}phenoxy)ethyl acetate]	141 to 144 °C

Other lines, results leading:

melting point	Structure (SMILES)
104 to 107 °C	CC(C)CCS(=O)(=O)NC(=O)OCc1cc(OC(C)C)nn1Cc1ccc(Cl)cc1Cl [Example 141, [1-(2,4-dichlorobenzyl)-3-isopropoxy-1H-pyrazol-5-yl]methyl [(3-methylbutyl)sulfonyl]carbamate]
126 to 128 °C	CCCCCS(=O)(=O)NC(=O)OCc1cc(OC(C)C)nn1Cc1ccc(Cl)cc1Cl [Example 142, [1-(2,4-dichlorobenzyl)-3-isopropoxy-1H-pyrazol-5-yl]methyl (pentylsulfonyl)carbamate]
104 to 105 °C	CC(C)Oc1cc(CCC(=O)NS(C)(=O)=O)n(Cc2ccc(Cl)cc2Cl)n1 [Example 148, 3-[1-(2,4-dichlorobenzyl)-3-isopropoxy-1H-pyrazol-5-yl]-N-(methylsulfonyl)propanamide]
149.5 to 152.5 °C	CC(C)CCS(=O)(=O)NC(=O)/C=C/c1cc(OC2CCOCC2)nn1Cc1ccc(C(F)(F)F)cc1Cl [Example 153, (2E)-3-[1-[2-chloro-4-(trifluoromethyl)benzyl]-3-(tetrahydro-2H-pyran-4-yloxy)-1H-pyrazol-5-yl]-N-[(3-methylbutyl)sulfonyl]acrylamide]
160.5 to 162.5 °C	CC(C)CCS(=O)(=O)NC(=O)CCc1cc(C2CC2)nn1Cc1ccc(C(F)(F)F)cc1Cl [Example 157, 3-{1-[2-chloro-4-(trifluoromethyl)benzyl]-3-cyclopropyl-1H-pyrazol-5-yl}-N-[(3-methylbutyl)sulfonyl]propanamide]
64.8 to 66.3 °C	CCCCCS(=O)(=O)NC(=O)/C=C/c1ccc(OCCOC)cc1OCC1CC1 [Example 160, (2E)-3-[2-(cyclopropylmethoxy)-4-(2-methoxyethoxy)phenyl]-N-(pentylsulfonyl)acrylamide]
92.2 to 93.6 °C	CCCCCS(=O)(=O)NC(=O)CCc1ccc(OCCOC)cc1Oc1ncc(Cl)cc1Cl [Example 171, 3-[2-[(3,5-dichloropyridin-2-yl)oxy]-4-(2-methoxyethoxy)phenyl]-N-(pentylsulfonyl)propanamide]
88.5 to 89.1 °C	CCCCCS(=O)(=O)NC(=O)/C=C/c1ccc(OCCOC)cc1Cc1ncc(Br)s1 [Example 178, (2E)-3-[2-[(5-bromo-1,3-thiazol-2-yl)methyl]-4-(2-methoxyethoxy)phenyl]-N-(pentylsulfonyl)acrylamide]
173.5 to 174.8 °C	CCCCCS(=O)(=O)NC(=O)/C=C/c1ccc(OCCOC)cc1Nc1ccc(C(F)(F)F)cc1Cl [Example 184, (2E)-3-[2-{[2-chloro-4-(trifluoromethyl)phenyl]amino}-4-(2-methoxyethoxy)phenyl]-N-(pentylsulfonyl)acrylamide]
148 to 150.3 °C	CCCCCS(=O)(=O)NC(=O)/C=C/c1ccc(OCCOC)cc1Oc1ncc([N+](=O)[O-])cc1C [Example 185, (2E)-3-{4-(2-methoxyethoxy)-2-[(3-methyl-5-nitropyridin-2-yl)oxy]phenyl}-N-(pentylsulfonyl)acrylamide]
118 to 118.4 °C	CCCCCS(=O)(=O)NC(=O)/C(=C/c1ccc(OCCOC)cc1Oc1ncc(Cl)cc1Cl)CC [Example 188, (2E)-2-[2-[(3,5-dichloropyridin-2-yl)oxy]-4-(2-methoxyethoxy)benzylidene]-N-(pentylsulfonyl)butanamide]
149.5 to 150.2 °C	CCCCCS(=O)(=O)NC(=O)/C=C/c1ccc(OCCOC)cc1Oc1ncc(NC(=O)OC(C)(C)C)cc1C [Example 192, tert-butyl [6-(5-(2-methoxyethoxy)-2-{(1E)-3-oxo-3-[(pentylsulfonyl)amino]prop-1-en-1-yl}phenoxy)-5-methylpyridin-3-yl]carbamate]
